Values of other authors as cited in patent publication EP1001773B1, “ORAL SOLID PHARMACEUTICAL COMPOSITIONS CONTAINING NICORANDIL FOR A MODULATED RELEASE AND THE PROCESS FOR THEIR PREPARATION” (Biomedica Foscama Industria Chimico-Farmaceutica S.p.A., priority 1997, dated 1999).

Settings: orally administered, conventional tablets; Am.J.Cardiol. 1989, 63, 25J-33J

Tmax.: 30 min
Structure (SMILES): O=C(NCCO[N+](=O)[O-])c1cccnc1 [Nicorandil, N-(2-hydroxyethyl) nicotinamide nitric ester]
